# Assay results from patent publication US20260125382A1, “COMPOUNDS FOR INHIBITING OR DEGRADING CDK2 AND/OR CDK9 AND MEDICINAL USE THEREOF” (KOREA RESEARCH INSTITUTE OF CHEMICAL TECHNOLOGY, priority 2022, published 2026).
# Assays:
# [1] = molecular target: T1, CDK2 (Homo sapiens, UniProt P24941); assay: CDK protein degradation activity (Western blotting), CDK2; assay type: cell-based; conditions: MDA-MB-231 cells, 16 hours, Western blot
# T1 construct: endogenous in cells; host or cells: MDA-MB-231
# Procedure, shortened: (§1)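 MDA-MB-231 cells were treated with compound at final concentrations of 100 nM, 1 μM and 10 μM, or DMSO vehicle, for 16 h. Lysates were resolved by SDS-PAGE and immunoblotted for CDK2, CDK9 and tubulin, with band intensities quantified densitometrically.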
# [2] = molecular target: T2, CDK9 (Homo sapiens, UniProt P50750); assay: CDK protein degradation activity (Western blotting), CDK9; assay type: cell-based; conditions: MDA-MB-231 cells, 16 hours, Western blot
# T2 construct: endogenous in cells; host or cells: MDA-MB-231
# Procedure, shortened: as §1
# T2 sequence (P50750 whole entry): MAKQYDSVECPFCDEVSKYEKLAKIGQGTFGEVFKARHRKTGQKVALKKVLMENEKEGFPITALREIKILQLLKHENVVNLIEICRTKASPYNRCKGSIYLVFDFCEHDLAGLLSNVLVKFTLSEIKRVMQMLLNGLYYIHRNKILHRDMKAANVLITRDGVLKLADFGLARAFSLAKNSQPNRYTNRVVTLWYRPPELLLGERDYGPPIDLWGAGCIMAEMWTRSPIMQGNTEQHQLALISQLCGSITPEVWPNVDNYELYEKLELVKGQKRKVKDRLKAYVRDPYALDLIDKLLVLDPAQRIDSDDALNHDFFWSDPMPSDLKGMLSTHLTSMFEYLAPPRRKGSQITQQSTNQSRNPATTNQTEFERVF
SMILES,Enzyme degradation CDK2 (% remaining) @ 0.1 μM [1],Enzyme degradation CDK2 (% remaining) @ 1 μM [1],Enzyme degradation CDK2 (% remaining) @ 10 μM [1],Enzyme degradation CDK9 (% remaining) @ 0.1 μM [2],Enzyme degradation CDK9 (% remaining) @ 1 μM [2],Enzyme degradation CDK9 (% remaining) @ 10 μM [2]
"Cc1cccc(C(=O)N[C@H]2C[C@@H](n3cnc4c(Nc5ccc(N6CCN(C7CC8(CCN(C(=O)C9CCN(c%10cc%11c(cc%10F)C(=O)N([C@H]%10CCC(=O)NC%10=O)C%11=O)CC9)CC8)C7)CC6)cc5)ncnc43)C2)n1 [Compound 465, N-((1s,3s)-3-(6-((4-(4-(7-(1-(2-(2,6-dioxopiperidin-3-yl)-6-fluoro-1,3-dioxoisoindolin-5-yl)piperidin-4-carbonyl)-7-azaspiro[3.5]nonan-2-yl)piperazin-1-yl)phenyl)amino)-9H-purin-9-yl)cyclobutyl)-6-methylpicolinamide]",50/50/50%,50/50/50%,50/50/50%,0/0/0%,0/0/0%,0/0/0%
"O=C1CC[C@H](N2C(=O)c3ccc(N4CC(C(=O)N5CCC(CN6CCN(c7ccc(Nc8ncnc9c8ncn9C8CC(NC(=O)c9cccc(F)n9)C8)cc7)CC6)CC5)C4)cc3C2=O)C(=O)N1 (some centres unmarked) [Compound 466, N-((1s,3s)-3-(6-((4-(4-((1-(1-(2-(2,6-dioxopiperidin-3-yl)-1,3-dioxoisoindolin-5-yl)azetidin-3-carbonyl)piperidin-4-yl)methyl)piperazin-1-yl)phenyl)amino)-9H-purin-9-yl)cyclobutyl)-6-fluoropicolinamide]",30%,20%,20%,0/0/0%,0/0/0%,0/0/0%
"O=C1CC[C@H](N2C(=O)c3ccc(N4CCC(C(=O)N5CCC(CN6CCN(c7ccc(Nc8ncnc9c8ncn9C8CC(NC(=O)c9cccc(F)n9)C8)cc7)CC6)CC5)CC4)cc3C2=O)C(=O)N1 (some centres unmarked) [Compound 467, N-((1s,3s)-3-(6-((4-(4-((1-(1-(2-(2,6-dioxopiperidin-3-yl)-1,3-dioxoisoindolin-5-yl)piperidin-4-carbonyl)piperidin-4-yl)methyl)piperazin-1-yl)phenyl)amino)-9H-purin-9-yl)cyclobutyl)-6-fluoropicolinamide]",40%,30%,30%,0/0/0%,0/0/0%,0/0/0%
"O=C1CC[C@H](N2C(=O)c3cc(F)c(N4CCC(C(=O)N5CCC(CN6CCN(c7ccc(Nc8ncnc9c8ncn9C8CC(NC(=O)c9cccc(F)n9)C8)cc7)CC6)CC5)CC4)cc3C2=O)C(=O)N1 (some centres unmarked) [Compound 468, N-((1s,3s)-3-(6-((4-(4-((1-(1-(2-(2,6-dioxopiperidin-3-yl)-6-fluoro-1,3-dioxoisoindolin-5-yl)piperidin-4-carbonyl)piperidin-4-yl)methyl)piperazin-1-yl)phenyl)amino)-9H-purin-9-yl)cyclobutyl)-6-fluoropicolinamide]",50%,40%,40%,0/0/0%,0/0/0%,0/0/0%
"O=C1CC[C@H](N2C(=O)c3ccc(N4CC(C(=O)N5CCC(CN6CCN(c7ccc(Nc8ncnc9c8ncn9[C@H]8C[C@@H](NC(=O)c9cccc(C(F)(F)F)n9)C8)cc7)CC6)CC5)C4)cc3C2=O)C(=O)N1 [Compound 469, N-((1s,3s)-3-(6-((4-(4-((1-(1-(2-(2,6-dioxopiperidin-3-yl)-1,3-dioxoisoindolin-5-yl)azetidin-3-carbonyl)piperidin-4-yl)methyl)piperazin-1-yl)phenyl)amino)-9H-purin-9-yl)cyclobutyl)-6-(trifluoromethyl)picolinamide]",40/40/40%,40/40/40%,40/40/40%,0/0/0%,0/0/0%,0/0/0%
"O=C1CCC(N2C(=O)c3ccc(N4CCC(C(=O)N5CCC(CN6CCN(c7ccc(Nc8ncnc9c8ncn9[C@H]8C[C@@H](NC(=O)c9cccc(C(F)(F)F)n9)C8)cc7)CC6)CC5)CC4)cc3C2=O)C(=O)N1 (some centres unmarked) [Compound 470, N-((1s,3s)-3-(6-((4-(4-((1-(1-(2-(2,6-dioxopiperidin-3-yl)-1,3-dioxoisoindolin-5-yl)piperidin-4-carbonyl)piperidin-4-yl)methyl)piperazin-1-yl)phenyl)amino)-9H-purin-9-yl)cyclobutyl)-6-(trifluoromethyl)picolinamide]",30/30/30%,30/30/30%,30/30/30%,0/0/0%,0/0/0%,0/0/0%
"O=C1CC[C@H](N2C(=O)c3cc(F)c(N4CCC(C(=O)N5CCC(CN6CCN(c7ccc(Nc8ncnc9c8ncn9[C@H]8C[C@@H](NC(=O)c9cccc(C(F)(F)F)n9)C8)cc7)CC6)CC5)CC4)cc3C2=O)C(=O)N1 [Compound 471, N-((1s,3s)-3-(6-((4-(4-((1-(1-(2-(2,6-dioxopiperidin-3-yl)-6-fluoro-1,3-dioxoisoindolin-5-yl)piperidin-4-carbonyl)piperidin-4-yl)methyl)piperazin-1-yl)phenyl)amino)-9H-purin-9-yl)cyclobutyl)-6-(trifluoromethyl)picolinamide]",50%,40%,40%,0/0/0%,0/0/0%,0/0/0%

# More lines, now with the values ahead:
Enzyme degradation CDK2 (% remaining) @ 0.1 μM [1],Enzyme degradation CDK2 (% remaining) @ 1 μM [1],Enzyme degradation CDK2 (% remaining) @ 10 μM [1],Enzyme degradation CDK9 (% remaining) @ 0.1 μM [2],Enzyme degradation CDK9 (% remaining) @ 1 μM [2],Enzyme degradation CDK9 (% remaining) @ 10 μM [2],SMILES
40%,40%,50%,0/0/0%,0/0/0%,0/0/0%,"N#Cc1cccc(C(=O)NC2CC(n3cnc4c(Nc5ccc(N6CCN(CC7CCN(C(=O)C8CCN(c9cc%10c(cc9F)C(=O)N([C@H]9CCC(=O)NC9=O)C%10=O)CC8)CC7)CC6)cc5)ncnc43)C2)n1 (some centres unmarked) [Compound 472, 6-cyano-N-((1s,3s)-3-(6-((4-(4-((1-(1-(2-(2,6-dioxopiperidin-3-yl)-6-fluoro-1,3-dioxoisoindolin-5-yl)piperidin-4-carbonyl)piperidin-4-yl)methyl)piperazin-1-yl)phenyl)amino)-9H-purin-9-yl)cyclobutyl)picolinamide]"
20%,30%,30%,10%,0%,0%,"O=C1CCC(N2C(=O)c3ccc(N4CCC(C(=O)N5CCN(CC6CCN(c7ccc(Nc8ncnc9c8ncn9[C@H]8C[C@@H](NC(=O)c9c(Cl)cccc9Cl)C8)cc7)CC6)CC5)CC4)cc3C2=O)C(=O)N1 (some centres unmarked) [Compound 474, 2,6-dichloro-N-((1s,3s)-3-(6-((4-(4-((4-(1-(2-(2,6-dioxopiperidin-3-yl)-1,3-dioxoisoindolin-5-yl)piperidin-4-carbonyl)piperazin-1-yl)methyl)piperidin-1-yl)phenyl)amino)-9H-purin-9-yl)cyclobutyl)benzamide]"
20/20/20%,20/20/20%,20/20/20%,0/0/0%,0/0/0%,0/0/0%,"O=C1CC[C@H](N2C(=O)c3cc(F)c(N4CCC(C(=O)N5CCN(CC6CCN(c7ccc(Nc8ncnc9c8ncn9[C@H]8C[C@@H](NC(=O)c9c(Cl)cccc9Cl)C8)cc7)CC6)CC5)CC4)cc3C2=O)C(=O)N1 [Compound 475, 2,6-dichloro-N-((1s,3s)-3-(6-((4-(4-((4-(1-(2-(2,6-dioxopiperidin-3-yl)-6-fluoro-1,3-dioxoisoindolin-5-yl)piperidin-4-carbonyl)piperazin-1-yl)methyl)piperidin-1-yl)phenyl)amino)-9H-purin-9-yl)cyclobutyl)benzamide]"
70%,,60%,50%,10%,10%,"Cc1cccc(C(=O)N[C@H]2C[C@@H](n3cnc4c(Nc5ccc(N6CCN(CC7CCN(C(=O)C8CCN(c9cc%10c(cc9F)C(=O)N([C@H]9CCC(=O)NC9=O)C%10=O)CC8)CC7)CC6)cc5)ncnc43)C2)n1 [Compound 476, N-((1s,3s)-3-(6-((4-(4-((1-(1-(2-(2,6-dioxopiperidin-3-yl)-6-fluoro-1,3-dioxoisoindolin-5-yl)piperidin-4-carbonyl)piperidin-4-yl)methyl)piperazin-1-yl)phenyl)amino)-9H-purin-9-yl)cyclobutyl)-6-methylpicolinamide]"
20/20/20%,20/20/20%,20/20/20%,30/30/30%,30/30/30%,30/30/30%,"Cc1cccc(C(=O)NC2CC(n3cnc4c(Nc5ccc(N6CCN(CC7CCN(C(=O)C8CCN(c9cc%10c(cc9F)C(=O)N([C@H]9CCC(=O)NC9=O)C%10=O)CC8)CC7)CC6)cc5C)ncnc43)C2)n1 (some centres unmarked) [Compound 477, N-((1s,3s)-3-(6-((4-(4-((1-(1-(2-(2,6-dioxopiperidin-3-yl)-6-fluoro-1,3-dioxoisoindolin-5-yl)piperidin-4-carbonyl)piperidin-4-yl)methyl)piperazin-1-yl)-2-methylphenyl)amino)-9H-purin-9-yl)cyclobutyl)-6-methylpicolinamide]"
